Drawing on ChEMBL document CHEMBL1149222, “Synthesis and in vitro antimycobacterial activity of novel 3-(1H-pyrrol-1-yl)-2-oxazolidinone analogues of PNU-100480” (2004), this text covers CC50, MIC50 and MIC90 for 9 compounds.

SMILES strings stand for the structures. Converted amounts (≈) assume the structure as drawn. Where only a bound is given, the exact number is not on record here.

For orientation: CC50 means the concentration that lowers cell viability or growth by half. Read a high CC50 as lower toxicity to the cells. By MIC50 is commonly meant an inhibitory concentration at the 50% level, which refers to growth in some studies and to a panel of isolates in others. Read a high MIC50 as lower susceptibility. What is called MIC90 is an inhibitory concentration at the 90% level, which refers to growth in some studies and to a panel of isolates in others. Higher therefore signals lower susceptibility.

Common to all, as to type: functional
The test system of experiment [1] is MT4. The experiment is described as follows: Cytotoxicity of compound against mock-infected MT-4 cells was evaluated by MTT assay. The settings on record: Homo sapiens. For orientation: Formazan colour is commonly taken as a measure of viable cells.
The test system of experiment [2] is Mycobacterium. As to the kind of experiment: In vitro anti-mycobacterial activity against Mycobacterium avium complex was determined.
Experiment [3] has as its system Mycobacterium. As to the kind of experiment: (§1) In vitro anti-mycobacterial activity against Mycobacterium smegmatis determined by the MTT method.
Experiment [4] has as its system Mycolicibacterium smegmatis. Described as §1.
Experiment [5] deals with Mycobacterium tuberculosis. As to the kind of experiment: In vitro anti-mycobacterial activity against Mycobacterium tuberculosis ATCC 27294 was determined.
The test system of experiment [6] is Mycolicibacterium fortuitum. As to the kind of experiment: In vitro anti-mycobacterial activity against Mycobacterium fortuitum was determined.
The subject of experiment [7] is Mycolicibacterium fortuitum. As to the kind of experiment: In vitro anti-mycobacterial activity against Mycobacterium fortuitum determined by the MTT method.
Experiment [8] has as its system Mycolicibacterium smegmatis. The experiment is described as follows: In vitro anti-mycobacterial activity against Mycobacterium smegmatis was determined.
The subject of experiment [9] is Mycobacterium tuberculosis. The experiment is described as follows: In vitro anti-mycobacterial activity against Mycobacterium tuberculosis ATCC 27294, determined by the MTT method.
The test system of experiment [10] is Mycobacterium tuberculosis. The experiment is described as follows: In vitro anti-mycobacterial activity against Mycobacterium tuberculosis C.I. 1104 was determined.
The subject of experiment [11] is Mycobacterium tuberculosis. The experiment is described as follows: In vitro anti-mycobacterial activity against Mycobacterium tuberculosis C.I. 1104, determined by the MTT method.

The compound `CC(=O)NC[C@H]1CN(c2ccn(-c3ccccc3F)c2)C(=O)O1` gave a 50% cytotoxic concentration (CC50) in experiment [1] of 33.3 µM. The MIC50 in experiment [2] was determined as 2 µM (≈ 0.635 µg/mL); in experiment [5], 3.6 µM (≈ 1.14 µg/mL); in experiment [6] it was 88.6 µM (≈ 28.1 µg/mL); in [8], 4.2 µM (≈ 1.33 µg/mL). Also, the MIC90 in experiment [3] was 8.9 µM (≈ 2.82 µg/mL); in experiment [4], 15.7 µM (≈ 4.98 µg/mL); in experiment [7] it was over 100 µM; in [9] it was 24.7 µM (≈ 7.84 µg/mL).
`CC(=O)NC[C@H]1CN(c2ccn(-c3ccc(F)cc3)c2)C(=O)O1` showed a CC50 in [1] of 100 µM. In addition, the MIC50 was 1.4 µM (≈ 0.444 µg/mL) in experiment [2], 1.9 µM (≈ 0.603 µg/mL) in experiment [5], over 100 µM in [6] and 10.3 µM (≈ 3.27 µg/mL) in experiment [8]. In addition, the MIC90 in [3] came to 5.8 µM (≈ 1.84 µg/mL); in [4], 45.8 µM (≈ 14.5 µg/mL); in experiment [9], 19.7 µM (≈ 6.25 µg/mL).
With `CC(=O)NC[C@H]1CN(c2ccn(-c3ccccc3)c2)C(=O)O1`, the CC50 in experiment [1] was over 100 µM. The MIC50 in [2] was 4 µM (≈ 1.2 µg/mL); in experiment [5], 19 µM (≈ 5.69 µg/mL); in experiment [10] it was 10.5 µM (≈ 3.14 µg/mL); in experiment [6] it was over 100 µM; in experiment [8] it was 9.8 µM (≈ 2.93 µg/mL). Further, the MIC90 in experiment [3] worked out at 32.8 µM (≈ 9.82 µg/mL); in experiment [4] it was 41.3 µM (≈ 12.4 µg/mL); in experiment [9] it was 74 µM (≈ 22.2 µg/mL); in experiment [11], 77.8 µM (≈ 23.3 µg/mL).
In experiment [1], `NNC(=O)c1ccncc1` [ISONIAZID] gave a CC50 of over 100 µM. Further, the MIC50 in experiment [2] is 1.4 µM (≈ 0.192 µg/mL); in [5], 0.09 µM (≈ 0.0123 µg/mL); in experiment [10] it was 0.06 µM (≈ 0.00823 µg/mL); in [6] it was over 100 µM; in experiment [8], 1.8 µM (≈ 0.247 µg/mL). Also, the MIC90 worked out at 4.7 µM (≈ 0.645 µg/mL) in experiment [3], 6.7 µM (≈ 0.919 µg/mL) in experiment [4], 9.8 µM (≈ 1.34 µg/mL) in [9] and 0.2 µM (≈ 0.0274 µg/mL) in [11].
The compound `CC(=O)NC[C@H]1CN(c2ccc(N3CCSCC3)c(F)c2)C(=O)O1` [SUTEZOLID] had a CC50 in [1] of over 100 µM. Further, the MIC50 was 0.7 µM (≈ 0.247 µg/mL) in experiment [2]; 0.1 µM (≈ 0.0353 µg/mL) in experiment [5]; 0.5 µM (≈ 0.177 µg/mL) in experiment [10]; over 100 µM in experiment [6]; 0.5 µM (≈ 0.177 µg/mL) in experiment [8]. Further, the MIC90 was 5 µM (≈ 1.77 µg/mL) in experiment [3], 1.6 µM (≈ 0.565 µg/mL) in experiment [4], 0.9 µM (≈ 0.318 µg/mL) in [9] and 2.5 µM (≈ 0.884 µg/mL) in experiment [11].
As for `CC(=O)NC[C@H]1CN(c2ccn(N3CCOCC3)c2)C(=O)O1`, in experiment [1], the CC50 was over 100 µM. Further, the MIC50 in experiment [2] is over 100 µM; in experiment [5], over 100 µM; in [10], over 100 µM; in experiment [6], over 1000 µM; in [8], over 100 µM.
In the case of `CC(=O)NC[C@H]1CN(c2ccn(-c3ccc(N4CCSCC4)c(F)c3)c2)C(=O)O1`, the CC50 in experiment [1] amounted to 20 µM. The MIC50 in experiment [2] is 4.8 µM (≈ 2.01 µg/mL); in experiment [5] it was 9.8 µM (≈ 4.1 µg/mL); in experiment [10], 12.2 µM (≈ 5.11 µg/mL); in [6], over 100 µM; in experiment [8] it was 34 µM (≈ 14.2 µg/mL). Further, the MIC90 in experiment [3] was 11.8 µM (≈ 4.94 µg/mL); in experiment [4], over 100 µM; in [9], 25 µM (≈ 10.5 µg/mL); in experiment [11], 31 µM (≈ 13 µg/mL).
`CC(=O)NC[C@H]1CN(c2ccn(-c3cccc(F)c3)c2)C(=O)O1`: in [1], the CC50 was over 100 µM. The MIC50 in experiment [2] is 4.6 µM (≈ 1.46 µg/mL); in experiment [5], 12.9 µM (≈ 4.09 µg/mL); in experiment [10] it was 9.4 µM (≈ 2.98 µg/mL); in [6], over 100 µM; in experiment [8], 14.5 µM (≈ 4.6 µg/mL). For the same compound, the MIC90 in experiment [3] was 39.8 µM (≈ 12.6 µg/mL); in [4], 56.3 µM (≈ 17.9 µg/mL); in [9] it was 91.4 µM (≈ 29 µg/mL); in experiment [11], 76.9 µM (≈ 24.4 µg/mL).
As for `CC(=O)NC[C@H]1CN(c2ccn(-c3ccc(N4CCOCC4)c(F)c3)c2)C(=O)O1`, the CC50 in experiment [1] is over 100 µM. The MIC50 was 16.5 µM (≈ 6.64 µg/mL) in [2]; 12.9 µM (≈ 5.19 µg/mL) in [5]; 49 µM (≈ 19.7 µg/mL) in experiment [10]; over 100 µM in [6]; 42.6 µM (≈ 17.1 µg/mL) in experiment [8]. For the same compound, the MIC90 was 100 µM (≈ 40.2 µg/mL) in experiment [3], over 100 µM in experiment [4], 100 µM (≈ 40.2 µg/mL) in experiment [9] and over 100 µM in [11].
